Data reported in PubChem BioAssay (NCI).
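Compound exposure: 48 hours, 5 concentrations, 96-well plates. At the TGI there is no net growth.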

Key:
Experiment in all cases: NCI-60 cell line screen, 48 h
[1] = test system: DMS 114 small cell lung
[2] = test system: DMS 273 small cell lung
[3] = test system: HOP-18 NSCLC
[4] = test system: KM20L2 colon
[5] = test system: LXFL 529 NSCLC
[6] = test system: M19-MEL melanoma
[7] = test system: RXF-631 renal
[8] = test system: XF 498 CNS
[9] = test system: SNB-78 CNS

Measured: TGI

COc1ccc2[nH]cc(CCNC(=O)[C@](O)(Cc3cn(C)c4ccccc34)[C@@]3(O)OCC(O)C3O)c2c1 (some centres undefined)
not listed: [9]
> 100 µM: all other assays above

NC(N)=NS(=O)(=O)c1ccc(Nc2c3ccccc3nc3c(C(=O)Nc4ccc(S(N)(=O)=O)cc4)ccc(Cl)c23)cc1
> 100 µM: all assays above

Cc1nc2ccccc2c(=O)n1NC(=S)Nc1ccc(Cl)cc1[N+](=O)[O-]
> 100 µM: [1] | [4] | [5] | [6]

Cc1ccc(C(=O)OCC(C)C)cc1N=NN(C)C
> 100 µM: [2] | [4] | [5] | [6] | [9]

COc1ccccc1/C=C1\CCC(CCN2CCOCC2)C1=O (centres undefined)
> 100 µM: all assays above

COc1cc(/C=C2\C(=O)N(C(=O)c3ccc(NC(C)=O)cc3)N=C2C)ccc1O
> 100 µM: [1] | [2] | [3] | [6] | [9]

CC(=O)c1cccc(NC(=O)C(=O)Nn2c(N)nnc2N)c1
not listed: [7]
> 100 µM: all other assays above

O=c1[nH]cnc2c1CCCN2
not listed: [2] | [7] | [8]
> 100 µM: all other assays above

CN1Cc2cc3c(cc2-c2ccccc21)OCO3
not listed: [1] | [7]
> 100 µM: all other assays above

Cc1nn(C)cc1P(=S)(c1ccccc1)c1ccccc1
not listed: [7]
> 100 µM: all other assays above
